Results from patent publication US10239873B2, “7-azaindole or 4,7-diazaindole derivatives as IKKϵ epsilon and TBK1 inhibitor and pharmaceutical composition comprising same” (GREEN CROSS CORPORATION, priority 2015, dated 2019).
pIC50: −log10 of the molar value.

Legend:
TBK1 = target: T1, TBK1 (Homo sapiens, UniProt Q9UHD2); test: ADP-Glo Kinase Assay, inhibition activity on TBK1; assay type: biochemical
T1 construct: purchased Promega (Invitrogen is also named in the same bracket) V4158; PR8031B; V3991 (not assigned to the two kinases)
T1 sequence (Q9UHD2 1-729): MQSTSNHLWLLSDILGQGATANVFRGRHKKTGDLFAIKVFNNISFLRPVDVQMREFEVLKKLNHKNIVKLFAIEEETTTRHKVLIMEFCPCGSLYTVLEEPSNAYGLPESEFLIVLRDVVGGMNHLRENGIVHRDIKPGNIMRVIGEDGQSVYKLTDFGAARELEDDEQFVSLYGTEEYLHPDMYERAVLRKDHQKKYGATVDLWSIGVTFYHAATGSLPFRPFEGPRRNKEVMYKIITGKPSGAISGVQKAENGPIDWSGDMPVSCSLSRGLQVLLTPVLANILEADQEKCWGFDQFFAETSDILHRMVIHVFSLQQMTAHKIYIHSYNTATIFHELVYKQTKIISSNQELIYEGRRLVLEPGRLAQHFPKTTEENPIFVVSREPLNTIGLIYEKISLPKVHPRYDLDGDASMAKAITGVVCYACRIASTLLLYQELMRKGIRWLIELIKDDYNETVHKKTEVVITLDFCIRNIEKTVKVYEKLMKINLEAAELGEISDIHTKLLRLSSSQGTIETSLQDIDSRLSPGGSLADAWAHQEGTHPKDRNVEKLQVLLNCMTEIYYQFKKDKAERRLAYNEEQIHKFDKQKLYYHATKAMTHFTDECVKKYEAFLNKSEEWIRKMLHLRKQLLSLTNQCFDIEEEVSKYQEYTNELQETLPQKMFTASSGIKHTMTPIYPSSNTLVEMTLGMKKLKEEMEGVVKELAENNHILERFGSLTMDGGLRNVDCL
Procedure, shortened: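 Kinase activity measured with the ADP-Glo luminescent ADP-detection kit per manufacturer's protocol, using IKKε or TBK1 kinase enzyme systems. Reaction buffer: 40 mM Tris (pH 7.5), 20 mM MgCl2, 0.1 mg/mL BSA; luminescence read on a luminometer.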

IKKε = target: T2, IKKε (Homo sapiens, UniProt Q14164); test: ADP-Glo Kinase Assay, inhibition activity on IKKε; assay type: biochemical
T2 construct: purchased Promega and/or Invitrogen V4158; PR8031B; V3991 (not assigned to the two kinases)
T2 sequence (Q14164 1-716): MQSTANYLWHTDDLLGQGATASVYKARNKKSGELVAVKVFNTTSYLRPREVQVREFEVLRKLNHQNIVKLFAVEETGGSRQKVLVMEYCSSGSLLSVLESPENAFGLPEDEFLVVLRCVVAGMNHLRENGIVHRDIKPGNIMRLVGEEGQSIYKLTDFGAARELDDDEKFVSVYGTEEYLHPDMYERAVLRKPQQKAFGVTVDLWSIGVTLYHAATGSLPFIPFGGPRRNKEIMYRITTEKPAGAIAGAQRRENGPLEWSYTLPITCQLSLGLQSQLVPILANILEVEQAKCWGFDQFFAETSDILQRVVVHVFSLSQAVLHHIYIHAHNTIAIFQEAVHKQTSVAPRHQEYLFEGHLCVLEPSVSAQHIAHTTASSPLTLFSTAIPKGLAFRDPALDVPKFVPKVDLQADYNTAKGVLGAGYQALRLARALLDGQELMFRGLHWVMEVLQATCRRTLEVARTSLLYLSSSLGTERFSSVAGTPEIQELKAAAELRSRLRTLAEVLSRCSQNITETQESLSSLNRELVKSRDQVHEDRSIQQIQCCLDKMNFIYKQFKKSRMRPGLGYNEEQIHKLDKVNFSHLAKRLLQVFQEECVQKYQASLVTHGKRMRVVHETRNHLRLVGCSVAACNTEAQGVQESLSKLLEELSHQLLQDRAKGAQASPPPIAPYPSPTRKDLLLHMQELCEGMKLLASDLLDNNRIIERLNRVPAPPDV
Protocol: Inhibition activities on IKKϵ and TBK1 were evaluated using the compounds of Examples 1 to 250.
The inhibition activities on IKKϵ and TBK1 were measured by a luminometer, IKKϵ/TBK1 Kinase Enzyme System (Promega, Ca# V4158; Invitrogen, PR8031B, Promega, Ca# V3991) and ADP-Glo Kinase Assay using ADP-Glo™ Kinase Analysis Kit (Promega, Ca# V9101) and a kinase reaction buffer [40 mM Tris(pH 7.5), 20 mM MgCl2, 0.1 mg/mL BSA] in accordance with the manufacturer's protocol.

SMILES | pIC50 (TBK1) | pIC50 (IKKε)
COc1ccc(-c2cnc3[nH]cc(C4=CCN(C(=O)NC5CCCC5)CC4)c3c2)cc1F [Example 50, N-cyclopentyl-4-(5-(3-fluoro-4-methoxyphenyl)-1H-pyrrolo[2,3-b]pyridin-3-yl)-5,6-dihydropyridine-1(2H)-carboxamide] | 6.48 | 6.39
CCS(=O)(=O)c1cccc(-c2cnc3[nH]cc(C4=CCN(C(=O)NC5CCCC5)CC4)c3c2)c1 [Example 54, N-cyclopentyl-4-(5-(3-(ethylsulfonyl)phenyl)-1H-pyrrolo[2,3-b]pyridin-3-yl)-3,6-dihydropyridine-1(2H)-carboxamide] | 7.49 | 7.08
CC1CC(c2c[nH]c3ncc(-c4ccc(CN5CCOCC5)s4)cc23)=CCN1C(=O)NC1CCCC1 (stereo not drawn) [Example 104, N-cyclopentyl-6-methyl-4-(5-(5-(morpholinomethyl)thiophen-2-yl)-1H-pyrrolo[2,3-b]pyridin-3-yl)-5,6-dihydropyridine-1(2H)-carboxamide] | 6.96 | 6.72
CCC1C=C(c2c[nH]c3ncc(-c4ccc(CN5CCOCC5)s4)cc23)CCN1C(=O)NC(C)C (stereo not drawn) [Example 109, 2-Ethyl-N-isopropyl-4-(5-(5-(morpholinomethyl)thiophen-2-yl)-1H-pyrrolo[2,3-b]pyridin-3-yl)-5,6-dihydropyridine-1(2H)-carboxamide] | 6.66 | 6.41
COc1ccc(-c2cnc3[nH]cc(C4=CC(C)N(C(=O)NC5CCCC5)CC4)c3c2)cc1OC (stereo not drawn) [Example 108, N-cyclopentyl-4-(5-(3,4-dimethoxyphenyl)-1H-pyrrolo[2,3-b]pyridin-3-yl)-2-methyl-5,6-dihydropyridine-1(2H)-carboxamide] | 7.64 | 7.54
CC(C)NC(=O)N1C(C)C=C(c2c[nH]c3ncc(-c4ccc(CN5CCOCC5)s4)cc23)CC1C (stereo not drawn) [Example 115, N-isopropyl-2,6-dimethyl-4-(5-(5-(morpholinomethyl)thiophen-2-yl)-1H-pyrrolo[2,3-b]pyridin-3-yl)-3,6-dihydropyridine-1(2H)-carboxamide] | 6.44 | 6.37
CC1CN(C(=O)NC2CCCC2)CC=C1c1c[nH]c2ncc(-c3ccc(S(C)(=O)=O)cc3)cc12 (stereo not drawn) [Example 121, N-cyclopentyl-5-methyl-4-(5-(4-(methylsulfonyl)phenyl)-1H-pyrrolo[2,3-b]pyridin-3-yl)-5,6-dihydropyridine-1(2H)-carboxamide] | 7.01 | 6.48
O=C(c1cccs1)N1CC=C(c2c[nH]c3ncc(-c4ccc(S(=O)(=O)N5CCOCC5)cc4)cc23)CC1 [Example 190, (4-(5-(4-(Morpholinosulfonyl)phenyl)-1H-pyrrolo[2,3-b]pyridin-3-yl)-5,6-dihydropyridin-1(2H)-yl)(thiophen-2-yl)methanone] | 6.85 | 6.41
CC(C)NC(=O)N1CC=C(c2c[nH]c3ncc(-c4ccc(CN5CCN(C)CC5)nc4)cc23)CC1 [Example 25, N-isopropyl-4-(5-(6-((4-methylpiperazin-1-yl)methyl)pyridin-3-yl)-1H-pyrrolo[2,3-b]pyridin-3-yl)-3,6-dihydropyridine-1(2H)-carboxamide] | 7.80 | 7.29
CN(C)S(=O)(=O)c1ccc(-c2cnc3[nH]cc(C4=CCN(C(=O)OC5CCCC5)CC4)c3c2)cc1 [Example 179, Cyclopentyl 4-(5-(4-(N,N-dimethylsulfamoyl)phenyl)-1H-pyrrolo[2,3-b]pyridin-3-yl)-5,6-dihydropyridine-1(2H)-carboxylate] | 6.47 | 6.30
COc1ccc(-c2cnc3[nH]cc(C4=CCN(C(=O)NC(C)C)CC4)c3c2)cc1 [Example 12, N-isopropyl-4-(5-(4-methoxyphenyl)-1H-pyrrolo[2,3-b]pyridin-3-yl)-3,6-dihydropyridine-1(2H)-carboxamide] | 7.54 | 5.66
CC1C=C(c2c[nH]c3ncc(-c4ccc(C(=O)N5CCN(C)CC5)cc4)cc23)CCN1C(=O)NC1CCC1 (stereo not drawn) [Example 98, N-cyclobutyl-2-methyl-4-(5-(4-(4-methylpiperazine-1-carbonyl)phenyl)-1H-pyrrolo[2,3-b]pyridin-3-yl)-5,6-dihydropyridine-1(2H)-carboxamide] | 7.82 | 7.66
CC1C=C(c2c[nH]c3ncc(-c4ccc(CN5CCOCC5)s4)cc23)CCN1C(=O)NC1CCC1 (stereo not drawn) [Example 101, N-cyclobutyl-2-methyl-4-(5-(5-(morpholinomethyl)thiophen-2-yl)-1H-pyrrolo[2,3-b]pyridin-3-yl)-5,6-dihydropyridine-1(2H)-carboxamide] | 8.00 | 7.54
CCN1CCN(Cc2cccc(-c3cnc4[nH]cc(C5=CCN(C(=O)NC(C)C)CC5)c4c3)c2)CC1 [Example 24, 4-(5-(3-((4-Ethylpiperazin-1-yl)methyl)phenyl)-1H-pyrrolo[2,3-b]pyridin-3-yl)-N-isopropyl-3,6-dihydropyridine-1(2H)-carboxamide] | 7.92 | 7.39
CC(=O)Nc1cccc(-c2cnc3[nH]cc(C4=CCN(C(=O)NC(C)C)CC4)c3c2)c1 [Example 19, 4-(5-(3-Acetamidophenyl)-1H-pyrrolo[2,3-b]pyridin-3-yl)-N-isopropyl-3,6-dihydropyridine-1(2H)-carboxamide] | 8.19 | 8.15
Cc1ccc(-c2cnc3[nH]cc(C4=CCN(C(=O)NC(C)C)CC4)c3c2)cc1 [Example 16, N-isopropyl-4-(5-(p-tolyl)-1H-pyrrolo[2,3-b]pyridin-3-yl)-3,6-dihydropyridine-1(2H)-carboxamide] | 7.44 | 6.55
CN1CCN(Cc2ccc(-c3cnc4[nH]cc(C5=CCN(C(=O)NC6CC6)CC5)c4c3)cc2)CC1 [Example 46, N-cyclopropyl-4-(5-(4-((4-methylpiperazin-1-yl)methyl)phenyl)-1H-pyrrolo[2,3-b]pyridin-3-yl)-5,6-dihydropyridine-1(2H)-carboxamide] | 7.85 | 7.60
CCCS(=O)(=O)c1ccc(-c2cnc3[nH]cc(C4=CCN(C(=O)NC5CCCC5)CC4)c3c2)cc1 [Example 55, N-cyclopentyl-4-(5-(4-(propylsulfonyl)phenyl)-1H-pyrrolo[2,3-b]pyridin-3-yl)-5,6-dihydropyridine-1(2H)-carboxamide] | 7.29 | 6.22
CCC(CC)NC(=O)N1CC=C(c2c[nH]c3ncc(-c4ccc(CN5CCN(C)CC5)s4)cc23)CC1 [Example 41, 4-(5-(5-((4-Methylpiperazin-1-yl)methyl)thiophen-2-yl)-1H-pyrrolo[2,3-b]pyridin-3-yl)-N-(pentan-3-yl)-3,6-dihydropyridine-1(2H)-carboxamide] | 7.33 | 6.66
CCN1CCN(Cc2ccc(-c3cnc4[nH]cc(C5=CCN(C(=O)NC(C)C)CC5)c4c3)cc2)CC1 [Example 22, 4-(5-(4-((4-Ethylpiperazin-1-yl)methyl)phenyl)-1H-pyrrolo[2,3-b]pyridin-3-yl)-N-isopropyl-3,6-dihydropyridine-1(2H)-carboxamide] | 8.00 | 7.70
CC(C)NC(=O)N1CC=C(c2c[nH]c3ncc(-c4cccc(F)c4)cc23)CC1 [Example 15, 4-(5-(3-Fluorophenyl)-1H-pyrrolo[2,3-b]pyridin-3-yl)-N-isopropyl-3,6-dihydropyridine-1(2H)-carboxamide] | 7.96 | < 5.00
